Data reported in US9440930B2, “Substituted bicyclic dihydropyrimidinones and their use as inhibitors of neutrophil elastase activity” (Boehringer Ingelheim International GmbH, priority 2014, dated 2016).

Biological target: T1, Human neutrophil elastase (Homo sapiens, UniProt P08246)
T1 construct: purchased Calbiochem 324681
T1 sequence (P08246 30-247 limits assumed): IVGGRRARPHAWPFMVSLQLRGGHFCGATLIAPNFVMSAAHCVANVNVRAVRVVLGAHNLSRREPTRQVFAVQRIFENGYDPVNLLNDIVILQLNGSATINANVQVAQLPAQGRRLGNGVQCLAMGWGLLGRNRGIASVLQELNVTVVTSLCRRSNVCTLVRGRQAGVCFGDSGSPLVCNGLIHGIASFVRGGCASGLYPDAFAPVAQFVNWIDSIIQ
Experiment: Human Neutrophil Elastase Assay
Type: biochemical
Conditions: substrate MeOSuc-Ala-Ala-Pro-Val-AMC 250 μM, pH 7.5, room temperature
Source text: Human Neutrophil Elastase Assay

C[S+]([O-])c1cc(C#N)ccc1C1NC(=O)N(c2cccc(C(F)(F)F)c2)C2=C1C(=O)CCC2 (single isomer, unassigned) [Example 1.1, 4-[2,5-Dioxo-1-(3-trifluoromethyl-phenyl)-1,2,3,4,5,6,7,8-octahydro-quinazolin-4-yl]-3-methanesulfinyl-benzonitrile]
IC50: 2 nM

C[S+]([O-])c1cc(C#N)ccc1C1NC(=O)N(c2cccc(C(F)(F)F)c2)C2=C1C(=O)CCC2 (single isomer, unassigned) [Example 1.1A, 4-[2,5-Dioxo-1-(3-trifluoromethyl-phenyl)-1,2,3,4,5,6,7,8-octahydro-quinazolin-4-yl]-3-methanesulfinyl-benzonitrile]
IC50: < 1 nM

C[S+]([O-])c1cc(C#N)ccc1C1NC(=O)N(c2cccc(C(F)(F)F)c2)C2=C1C(=O)CCC2 (single isomer, unassigned) [Example 1.1B, 4-[2,5-Dioxo-1-(3-trifluoromethyl-phenyl)-1,2,3,4,5,6,7,8-octahydro-quinazolin-4-yl]-3-methanesulfinyl-benzonitrile]
IC50: 7.4 nM

C[S+]([O-])c1cc(C#N)ccc1C1NC(=O)N(c2cccc(C(F)(F)F)c2)C2=C1C(=O)CCC2 (single isomer, unassigned) [Example 1.2, 4-[2,5-Dioxo-1-(3-trifluoromethyl-phenyl)-1,2,3,4,5,6,7,8-octahydro-quinazolin-4-yl]-3-methanesulfinyl-benzonitrile]
IC50: 4.2 nM

CN1C(=O)N(c2cccc(C(F)(F)F)c2)C2=C(C(=O)CCC2)C1c1ccc(C#N)cc1[S+](C)[O-] (single isomer, unassigned) [Example 2.1, 3-Methanesulfinyl-4-[3-methyl-2,5-dioxo-1-(3-trifluoromethyl-phenyl)-1,2,3,4,5,6,7,8-octahydro-quinazolin-4-yl]-benzonitrile]
IC50: < 1 nM

CN1C(=O)N(c2cccc(C(F)(F)F)c2)C2=C(C(=O)CCC2)C1c1ccc(C#N)cc1[S+](C)[O-] (single isomer, unassigned) [Example 2.1B, 3-Methanesulfinyl-4-[3-methyl-2,5-dioxo-1-(3-trifluoromethyl-phenyl)-1,2,3,4,5,6,7,8-octahydro-quinazolin-4-yl]-benzonitrile]
IC50: 134 nM

CN1C(=O)N(c2cccc(C(F)(F)F)c2)C2=C(C(=O)CCC2)C1c1ccc(C#N)cc1[S+](C)[O-] (single isomer, unassigned) [Example 2.2, 3-Methanesulfinyl-4-[3-methyl-2,5-dioxo-1-(3-trifluoromethyl-phenyl)-1,2,3,4,5,6,7,8-octahydro-quinazolin-4-yl]-benzonitrile]
IC50: 1.2 nM

CN1C(=O)N(c2cccc(C(F)(F)F)c2)C2=C(C(=O)CCC2)C1c1ccc(C#N)cc1[S+](C)[O-] (single isomer, unassigned) [Example 2.2B, 3-Methanesulfinyl-4-[3-methyl-2,5-dioxo-1-(3-trifluoromethyl-phenyl)-1,2,3,4,5,6,7,8-octahydro-quinazolin-4-yl]-benzonitrile]
IC50: 100 nM

CNC(=O)N1C(=O)N(c2cccc(C(F)(F)F)c2)C2=C(C(=O)CCC2)C1c1ccc(C#N)cc1[S+](C)[O-] (single isomer, unassigned) [Example 3.1, 4-(4-Cyano-2-methanesulfinyl-phenyl)-2,5-dioxo-1-(3-trifluoromethyl-phenyl)-1,4,5,6,7,8-hexahydro-2H-quinazoline-3-carboxylic acid methylamide]
IC50: < 1 nM

CNC(=O)N1C(=O)N(c2cccc(C(F)(F)F)c2)C2=C(C(=O)CCC2)C1c1ccc(C#N)cc1[S+](C)[O-] (single isomer, unassigned) [Example 3.2, 4-(4-Cyano-2-methanesulfinyl-phenyl)-2,5-dioxo-1-(3-trifluoromethyl-phenyl)-1,4,5,6,7,8-hexahydro-2H-quinazoline-3-carboxylic acid methylamide]
IC50: < 1 nM

CS(=O)(=O)c1cc(C#N)ccc1C1C2=C(CCCC2=O)N(c2cccc(C(F)(F)F)c2)C(=O)N1CC1COC1 (single isomer, unassigned) [Example 5B, 3-Methanesulfonyl-4-[3-oxetan-3-ylmethyl-2,5-dioxo-1-(3-trifluoromethyl-phenyl)-1,2,3,4,5,6,7,8-octahydro-quinazolin-4-yl]-benzonitrile]
IC50: 157 nM

N#Cc1ccc(C2NC(=O)N(c3cccc(C(F)(F)F)c3)C3=C2C(=O)CCC3)c(S(=O)(=O)CCO)c1 (stereo not drawn) [Example 4, 4-[2,5-Dioxo-1-(3-trifluoromethyl-phenyl)-1,2,3,4,5,6,7,8-octahydro-quinazolin-4-yl]-3-(3-hydroxy-ethane-1-sulfonyl)-benzonitrile]
IC50: 7 nM

N#Cc1ccc(C2NC(=O)N(c3cccc(C(F)(F)F)c3)C3=C2C(=O)CCC3)c(S(=O)(=O)CCCO)c1 (stereo not drawn) [Example 4.1]
IC50: 5.6 nM

COCCS(=O)(=O)c1cc(C#N)ccc1C1NC(=O)N(c2cccc(C(F)(F)F)c2)C2=C1C(=O)CCC2 (stereo not drawn) [Example 4.2]
IC50: 11 nM

CN1C(=O)N(c2cccc(C(F)(F)F)c2)C2=C(C(=O)CCC2)C1c1ccc(C#N)cc1CO (stereo not drawn) [Example 7, 3-Hydroxymethyl-4-[3-methyl-2,5-dioxo-1-(3-trifluoromethyl-phenyl)-1,2,3,4,5,6,7,8-octahydro-quinazolin-4-yl]-benzonitrile]
IC50: 1 nM
